Where two headings read alike, the source gives them in different places.
Legend:
[1] = test system: HMGB-1; assay: HMGB-1 release from LPS-stimulated RAW264.7 macrophage cultures (western blot); assay type: cell-based, murine
Procedure: (§1) Cell Culture. BALB/c murine macrophage-like RAW 264.7 cells obtained from the American Type Culture Collection (ATCC Number TIB-71, ATCC, Rockville, Mass.) (61), were cultured in RPMI 1640 (Life Technologies, Grand Island, N.Y.) supplemented with 10% heat inactivated fetal bovine serum (Gemini, Calabasas, Calif.), 2 mM glutamine (Cat. # 25030-149, Gibco BRL, Rockville, Mass.) and antibiotic-antimycotic mix (Cat. # 15240-062, Gibco BRL, Rockville, Mass.) in a humidified incubator with 5% CO2. Cells were mechanically removed and resuspended in serum-free Opti-MEM I medium (Life Technology, Grand Island, N.Y.) to perform experiments at 75% confluence.
(§2) Cytokine measurements. TNF concentration in mouse serum and in conditioned media from RAW 264.7 cell cultures was measured by ELISA (minimum detectable concentration=10 pg/ml). […] Mouse serum IL-6 and IL-1β levels were measured using ELISA kits (R&D Systems, Inc., Minneapolis, Minn.). HMGB-1 was analyzed by western blot as previously described by Wang et al, 1999. […] Protein was electroblotting to Immun-blot PVDF membrane (Bio-rad, Hercules Calif.) and HMGB-1 was analyzed using polyclonal 241 antibody and secondary anti-rabbit horseradish peroxidase (Amersham, Pitscataway, N.J.). Standard curves were constructed using r-HMGB-1, and the intensity of the 30 kD band analyzed by densitometry. […]

[2] = Stability of pyruvate esters in aqueous solution; assay type: physicochemical; details: in the presence of calcium salts; compared with sodium pyruvate
[3] = test system: TNF gene transcript; assay: TNF mRNA in LPS-stimulated RAW 264.7 cells (RNase protection assay); assay type: cell-based, murine
Procedure: as §1
Total RNA extraction and RNase protection assay. […] The levels of TNF and cyclophilin mRNA in RAW cells were measured using an RNase protection assay kit from PharMingen in accordance with the manufacturer's instructions (San Diego, Calif.). […] Molecular weight markers were prepared using pBR-322 plasmid DNA digested with MSP I (New England Bio Labs, Beverly, Mass.) and Klenow end-labeled (Strategene, La Jolla, Calif.) with ^α-32P-dCTP (800 Ci/mmol, Amersham); mRNA levels were measured with an Instantlmager (Packard Instrument Co., Meriden, Conn.).
To determine the effect of ethyl pyruvate on TNF synthesis by macrophages, murine macrophage-like RAW 264.7 cells were stimulated with endotoxin, and TNF measured in the conditioned media. […]

[4] = test system: IL6; assay: Peak serum IL6 in endotoxemic mice (ELISA); assay type: in vivo, Balb/C mice; details: pretreatment, data not shown
Procedure: Endotoxin shock. Mice were injected with endotoxin (Escherichia coli lipopolysaccharide, LPS 0111:B4; Sigma Chemical Co, St. Louis, Mo.) that was dissolved in sterile pyrogen-free saline at stock concentrations of 10 mg/ml. LPS solutions were sonicated for 20 min immediately prior to use for each experiment. Mice received an LD75 dose of LPS (5 mg/kg, i.p.). Blood was collected at different times after LPS administration, allowed to clot for 2 h at room temperature, then centrifuged for 20 min at 1,500 g. Serum samples were stored at […] prior to analysis. Mortality was recorded for up to 3 weeks after injection to ensure that no additional late deaths occurred.
as §2

Compound: CCOC(=O)C(C)=O [ethyl pyruvate]
- total intracellular (cell associated) HMGB1 protein concentration ([1]; RAW264.7 cells treated with 1, 5 or 10 mM, 10 or 20 h): did not significantly influence total intracellular HMGB1 protein concentration
- LPS-induced HMGB-1 release ([1]; conditioned media, overnight (24 hrs) endotoxin exposure): significantly prevented LPS-induced HMGB-1 release in a concentration dependent manner
- stability of aqueous solution [2]: more stable aqueous solution than sodium pyruvate
- amount of TNF mRNA / TNF transcription [3]: prevents LPS-induced transcription of TNF in an ethyl pyruvate concentration dependent fashion
- amount of TNF mRNA / TNF transcription ([3]; listed as Ethyl pyruvate): significantly reduced the amount of TNF mRNA
- peak serum level of IL6 [4]: attenuated
